Test results reported in patent US6693216B2, “Calcium double salts” (Nutrinova Nutrition Specialties & Food Ingredients GmbH, priority 2000, dated 2004).
Like-named read-outs stand apart in the source and are kept apart here.

What was measured:
Bacilli = conditions: Part II, 1 g/l in apple juice pH 4.5, 25° C.
Acetic acid bacteria = conditions: Part II, 1 g/l in apple juice pH 4.5, 25° C.
[1] = sealed
Text: Salts prepared as in example 1 were dried, stored under the specified conditions without the addition of other substances and checked at regular intervals visually for discoloration: […]

Gram-positive bacteria = conditions: Part II, 1 g/l in apple juice pH 4.5, 25° C.
Molds II = conditions: Part II, 1 g/l in apple juice pH 4.5, 25° C.
Yeasts = conditions: Part II, 1 g/l in apple juice pH 4.5, 25° C.
Clostridia = conditions: Part II, 1 g/l in apple juice pH 4.5, 25° C.
Lactic acid bacteria = conditions: Part II, 1 g/l in apple juice pH 4.5, 25° C.
Thermophilic bacilli = conditions: Part II, 1 g/l in apple juice pH 4.5, 25° C.
Gram-negative bacteria = conditions: Part II; for Number of surviving microorganisms per g of contaminated sample, Gram-negative bacteria: 1 g/l in apple juice pH 4.5, 25° C.
Molds I = conditions: Part II, 1 g/l in apple juice pH 4.5, 25° C.
[2] = 1 day after inoculation (3.3 × 10^4)
[3] = 3 days after inoculation (3.3 × 10^4)
[4] = 7 days after inoculation (3.3 × 10^4)
[5] = 14 days after inoculation (3.3 × 10^4)
[6] = 1 day after inoculation (2.8 × 10^4)
[7] = 3 days after inoculation (2.8 × 10^4)
[8] = 7 days after inoculation (2.8 × 10^4)
[9] = 14 days after inoculation (2.8 × 10^4)
[10] = 1 day after inoculation (2.1 × 10^4)
[11] = 3 days after inoculation (2.1 × 10^4)
[12] = 7 days after inoculation (2.1 × 10^4)
[13] = 14 days after inoculation (2.1 × 10^4)
[14] = 1 day after inoculation (2.5 × 10^4)
[15] = 3 days after inoculation (2.5 × 10^4)
[16] = 7 days after inoculation (2.5 × 10^4)
[17] = 14 days after inoculation (2.5 × 10^4)
[18] = 1 day after inoculation (2.6 × 10^4)
[19] = 3 days after inoculation (2.6 × 10^4)
[20] = 7 days after inoculation (2.6 × 10^4)
[21] = 14 days after inoculation (2.6 × 10^4)
[22] = 1 day after inoculation (2.9 × 10^4)
[23] = 3 days after inoculation (2.9 × 10^4)
[24] = 7 days after inoculation (2.9 × 10^4)
[25] = 14 days after inoculation (2.9 × 10^4)
[26] = 1 day after inoculation (2.7 × 10^4)
[27] = 3 days after inoculation (2.7 × 10^4)
[28] = 7 days after inoculation (2.7 × 10^4)
[29] = 14 days after inoculation (2.7 × 10^4)
[30] = 1 day after inoculation (1.3 × 10^4)
[31] = 3 days after inoculation (1.3 × 10^4)
[32] = 7 days after inoculation (1.3 × 10^4)
[33] = 14 days after inoculation (1.3 × 10^4)
[34] = 1 day after inoculation (2.2 × 10^4)
[35] = 3 days after inoculation (2.2 × 10^4)
[36] = 7 days after inoculation (2.2 × 10^4)
[37] = 14 days after inoculation (2.2 × 10^4)

## C/C=C/C=C/C(=O)[O-].CC(=O)[O-].[Ca+2] [calcium acetate sorbate]
Bacilli; [2]
  Number of surviving microorganisms per g of contaminated sample, Bacilli: 2.5 × 10^3 CFU/g
Bacilli; [3]
  Number of surviving microorganisms per g of contaminated sample, Bacilli: 1.7 × 10^3 CFU/g
Bacilli; [4]
  Number of surviving microorganisms per g of contaminated sample, Bacilli: 1.7 × 10^3 CFU/g
Bacilli; [5]
  Number of surviving microorganisms per g of contaminated sample, Bacilli: 1.4 × 10^3 CFU/g
Acetic acid bacteria; [6]
  Number of surviving microorganisms per g of contaminated sample, Acetic acid bacteria: 2.5 × 10^4 CFU/g
Acetic acid bacteria; [7]
  Number of surviving microorganisms per g of contaminated sample, Acetic acid bacteria: 6.5 × 10^3 CFU/g
Acetic acid bacteria; [8]
  Number of surviving microorganisms per g of contaminated sample, Acetic acid bacteria: 1.7 × 10^5 CFU/g
Acetic acid bacteria; [9]
  Number of surviving microorganisms per g of contaminated sample, Acetic acid bacteria: 1.6 × 10^5 CFU/g
[1]; dark at 7° C.
  Time after yellow-brown discoloration of a 1% strength aqueous solution: >12 months />12 months
  Time after yellow-brown discoloration of the powder: 12 months />12 months
[1]; dark at 25° C.
  Time after yellow-brown discoloration of a 1% strength aqueous solution: >12 months />12 months
  Time after yellow-brown discoloration of the powder: 12 months />12 months
[1]; under sunlight at 7° C.
  Time after yellow-brown discoloration of a 1% strength aqueous solution: 12 months />12 months
  Time after yellow-brown discoloration of the powder: 12 months />12 months
[1]; under sunlight at 25° C.
  Time after yellow-brown discoloration of a 1% strength aqueous solution: 12 months />12 months
  Time after yellow-brown discoloration of the powder: 12 months />12 months
Gram-positive bacteria; [10]
  Number of surviving microorganisms per g of contaminated sample, Gram-positive bacteria: 2.5 × 10^4 CFU/g
Gram-positive bacteria; [11]
  Number of surviving microorganisms per g of contaminated sample, Gram-positive bacteria: 6.2 × 10^3 CFU/g
Gram-positive bacteria; [12]
  Number of surviving microorganisms per g of contaminated sample, Gram-positive bacteria: 2.7 × 10^3 CFU/g
Gram-positive bacteria; [13]
  Number of surviving microorganisms per g of contaminated sample, Gram-positive bacteria: <10 CFU/g
Molds II; [14]
  Number of surviving microorganisms per g of contaminated sample, Molds II: 4.4 × 10^3 CFU/g
Molds II; [15]
  Number of surviving microorganisms per g of contaminated sample, Molds II: <100 CFU/g
Molds II; [16]
  Number of surviving microorganisms per g of contaminated sample, Molds II: <10 CFU/g
Molds II; [17]
  Number of surviving microorganisms per g of contaminated sample, Molds II: <10 CFU/g
Yeasts; [18]
  Number of surviving microorganisms per g of contaminated sample, Yeasts: 1.3 × 10^4 CFU/g
Yeasts; [19]
  Number of surviving microorganisms per g of contaminated sample, Yeasts: 3.4 × 10^3 CFU/g
Yeasts; [20]
  Number of surviving microorganisms per g of contaminated sample, Yeasts: <100 CFU/g
Yeasts; [21]
  Number of surviving microorganisms per g of contaminated sample, Yeasts: <10 CFU/g
Clostridia; [22]
  Number of surviving microorganisms per g of contaminated sample, Clostridia: 7.0 × 10^2 CFU/g
Clostridia; [23]
  Number of surviving microorganisms per g of contaminated sample, Clostridia: <100 CFU/g
Clostridia; [24]
  Number of surviving microorganisms per g of contaminated sample, Clostridia: <10 CFU/g
Clostridia; [25]
  Number of surviving microorganisms per g of contaminated sample, Clostridia: <10 CFU/g
Lactic acid bacteria; [26]
  Number of surviving microorganisms per g of contaminated sample, Lactic acid bacteria: 5.5 × 10^3 CFU/g
Lactic acid bacteria; [27]
  Number of surviving microorganisms per g of contaminated sample, Lactic acid bacteria: <100 CFU/g
Lactic acid bacteria; [28]
  Number of surviving microorganisms per g of contaminated sample, Lactic acid bacteria: <10 CFU/g
Lactic acid bacteria; [29]
  Number of surviving microorganisms per g of contaminated sample, Lactic acid bacteria: <10 CFU/g
Thermophilic bacilli; [30]
  Number of surviving microorganisms per g of contaminated sample, Thermophilic bacilli: 2.3 × 10^3 CFU/g
Thermophilic bacilli; [31]
  Number of surviving microorganisms per g of contaminated sample, Thermophilic bacilli: 1.1 × 10^3 CFU/g
Thermophilic bacilli; [32]
  Number of surviving microorganisms per g of contaminated sample, Thermophilic bacilli: 1.0 × 10^2 CFU/g
Thermophilic bacilli; [33]
  Number of surviving microorganisms per g of contaminated sample, Thermophilic bacilli: <10 CFU/g
Gram-negative bacteria; 1 g/l in apple juice pH 4.5
  Growth of Gram-negative bacteria: substantially inhibited
Gram-negative bacteria; [26]
  Number of surviving microorganisms per g of contaminated sample, Gram-negative bacteria: 9.0 × 10^3 CFU/g
Gram-negative bacteria; [27]
  Number of surviving microorganisms per g of contaminated sample, Gram-negative bacteria: 3.2 × 10^3 CFU/g
Gram-negative bacteria; [28]
  Number of surviving microorganisms per g of contaminated sample, Gram-negative bacteria: 1.5 × 10^3 CFU/g
Gram-negative bacteria; [29]
  Number of surviving microorganisms per g of contaminated sample, Gram-negative bacteria: 4.2 × 10^4 CFU/g
Molds I; [34]
  Number of surviving microorganisms per g of contaminated sample, Molds I: 3.7 × 10^3 CFU/g
Molds I; [35]
  Number of surviving microorganisms per g of contaminated sample, Molds I: 5.0 × 10^2 CFU/g
Molds I; [36]
  Number of surviving microorganisms per g of contaminated sample, Molds I: 1.0 × 10^2 CFU/g
Molds I; [37]
  Number of surviving microorganisms per g of contaminated sample, Molds I: <100 CFU/g
All microorganisms used; 1 g/l in apple juice pH 4.5, up to 14 days
  Preservative action against the microorganisms used: acts well and persistently against all microorganisms used except for acetic acid bacteria and bacilli
All microorganisms used; same concentration, 1 g/l in apple juice pH 4.5
  Preservative action compared with the single salts: acts surprisingly better than calcium acetate (in particular against lactic acid bacteria, yeasts, molds and Gram-positive bacteria) or calcium sorbate (in particular against lactic acid bacteria) used alone

## O=C[O-].O=C[O-].[Ca+2] [Calcium Formate]
Bacilli; [2]
  Number of surviving microorganisms per g of contaminated sample, Bacilli: 1.7 × 10^3 CFU/g
Bacilli; [3]
  Number of surviving microorganisms per g of contaminated sample, Bacilli: 1.5 × 10^3 CFU/g
Bacilli; [4]
  Number of surviving microorganisms per g of contaminated sample, Bacilli: 1.4 × 10^3 CFU/g
Bacilli; [5]
  Number of surviving microorganisms per g of contaminated sample, Bacilli: 1.7 × 10^3 CFU/g
Acetic acid bacteria; [6]
  Number of surviving microorganisms per g of contaminated sample, Acetic acid bacteria: 8.7 × 10^5 CFU/g
Acetic acid bacteria; [7]
  Number of surviving microorganisms per g of contaminated sample, Acetic acid bacteria: 2.5 × 10^6 CFU/g
Acetic acid bacteria; [8]
  Number of surviving microorganisms per g of contaminated sample, Acetic acid bacteria: >3.0 × 10^6 CFU/g
Acetic acid bacteria; [9]
  Number of surviving microorganisms per g of contaminated sample, Acetic acid bacteria: >3.0 × 10^6 CFU/g
Gram-positive bacteria; [10]
  Number of surviving microorganisms per g of contaminated sample, Gram-positive bacteria: 2.2 × 10^4 CFU/g
Gram-positive bacteria; [11]
  Number of surviving microorganisms per g of contaminated sample, Gram-positive bacteria: 8.9 × 10^3 CFU/g
Gram-positive bacteria; [12]
  Number of surviving microorganisms per g of contaminated sample, Gram-positive bacteria: 4.6 × 10^3 CFU/g
Gram-positive bacteria; [13]
  Number of surviving microorganisms per g of contaminated sample, Gram-positive bacteria: 2.0 × 10^3 CFU/g
Molds II; [14]
  Number of surviving microorganisms per g of contaminated sample, Molds II: 1.0 × 10^4 CFU/g
Molds II; [15]
  Number of surviving microorganisms per g of contaminated sample, Molds II: 1.5 × 10^3 CFU/g
Molds II; [16]
  Number of surviving microorganisms per g of contaminated sample, Molds II: >3.0 × 10^4 CFU/g
Molds II; [17]
  Number of surviving microorganisms per g of contaminated sample, Molds II: 3.9 × 10^5 CFU/g
Yeasts; [18]
  Number of surviving microorganisms per g of contaminated sample, Yeasts: 7.4 × 10^5 CFU/g
Yeasts; [19]
  Number of surviving microorganisms per g of contaminated sample, Yeasts: 1.0 × 10^6 CFU/g
Yeasts; [20]
  Number of surviving microorganisms per g of contaminated sample, Yeasts: >3.0 × 10^6 CFU/g
Yeasts; [21]
  Number of surviving microorganisms per g of contaminated sample, Yeasts: >3.0 × 10^6 CFU/g
Clostridia; [22]
  Number of surviving microorganisms per g of contaminated sample, Clostridia: 4.0 × 10^2 CFU/g
Clostridia; [23]
  Number of surviving microorganisms per g of contaminated sample, Clostridia: 2.0 × 10^2 CFU/g
Clostridia; [24]
  Number of surviving microorganisms per g of contaminated sample, Clostridia: <100 CFU/g
Clostridia; [25]
  Number of surviving microorganisms per g of contaminated sample, Clostridia: 10 CFU/g
Lactic acid bacteria; [26]
  Number of surviving microorganisms per g of contaminated sample, Lactic acid bacteria: 4.4 × 10^3 CFU/g
Lactic acid bacteria; [27]
  Number of surviving microorganisms per g of contaminated sample, Lactic acid bacteria: 2.5 × 10^4 CFU/g
Lactic acid bacteria; [28]
  Number of surviving microorganisms per g of contaminated sample, Lactic acid bacteria: >3.0 × 10^6 CFU/g
Lactic acid bacteria; [29]
  Number of surviving microorganisms per g of contaminated sample, Lactic acid bacteria: >3.0 × 10^6 CFU/g
Thermophilic bacilli; [30]
  Number of surviving microorganisms per g of contaminated sample, Thermophilic bacilli: 2.3 × 10^3 CFU/g
Thermophilic bacilli; [31]
  Number of surviving microorganisms per g of contaminated sample, Thermophilic bacilli: 8.0 × 10^2 CFU/g
Thermophilic bacilli; [32]
  Number of surviving microorganisms per g of contaminated sample, Thermophilic bacilli: 6.0 × 10^2 CFU/g
Thermophilic bacilli; [33]
  Number of surviving microorganisms per g of contaminated sample, Thermophilic bacilli: <10 CFU/g
Gram-negative bacteria; [26]
  Number of surviving microorganisms per g of contaminated sample, Gram-negative bacteria: 1.5 × 10^4 CFU/g
Gram-negative bacteria; [27]
  Number of surviving microorganisms per g of contaminated sample, Gram-negative bacteria: 3.6 × 10^3 CFU/g
Gram-negative bacteria; [28]
  Number of surviving microorganisms per g of contaminated sample, Gram-negative bacteria: 2.3 × 10^3 CFU/g
Gram-negative bacteria; [29]
  Number of surviving microorganisms per g of contaminated sample, Gram-negative bacteria: 75 CFU/g
Molds I; [34]
  Number of surviving microorganisms per g of contaminated sample, Molds I: 4.1 × 10^3 CFU/g
Molds I; [35]
  Number of surviving microorganisms per g of contaminated sample, Molds I: 2.9 × 10^3 CFU/g
Molds I; [36]
  Number of surviving microorganisms per g of contaminated sample, Molds I: 1.9 × 10^3 CFU/g
Molds I; [37]
  Number of surviving microorganisms per g of contaminated sample, Molds I: 2.6 × 10^3 CFU/g
